Source: US8722849B2, “Polypeptides” (Novo Nordisk A/S, priority 2011, dated 2014)
Starred links: 1 amine or outer side, 2 acyl side, 3 side chain; linkers in the order of their positions; H or OH if unused. Positions of bridges follow the written chain, without caps; N, C: chain ends. Residues, ends and D or L forms follow the SMILES beside them. Groups on a side chain read outwards from the residue. *: point of attachment. C20 diacid = O=C(O)CCCCCCCCCCCCCCCCCCC(=O)*; C18 diacid = O=C(O)CCCCCCCCCCCCCCCCC(=O)*; γGlu = O=C(O)[C@H](CCC(=O)[*:2])N[*:1]; AEEA = NCCOCCOCC(=O)O

Experiments:
[1] = Assay (III) ThT fibrillation assay for physical stability; type: physicochemical
How it was run: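 Freshly prepared formulations, pH-adjusted, with 1 μM ThT; four or eight replicates incubated at 37 °C under 960 rpm orbital shaking. Fluorescence (ex 444/em 485 nm) read every 20 min; […]. Peptide concentration measured by RP-HPLC before and after the run.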

[2] = target: T1, rat calcitonin (a) receptor (Rattus norvegicus, UniProt P32214); experiment: Assay (II)b functional cAMP FlashPlate assay, rat calcitonin receptor; type: cell-based; details: Table 11; read-out: CTa receptor rat EC50
T1 construct: expressed in transfected cells; host or cells: BHK tk'ts 13
T1 sequence (P32214 25-479 isoform P32214-2 limits assumed): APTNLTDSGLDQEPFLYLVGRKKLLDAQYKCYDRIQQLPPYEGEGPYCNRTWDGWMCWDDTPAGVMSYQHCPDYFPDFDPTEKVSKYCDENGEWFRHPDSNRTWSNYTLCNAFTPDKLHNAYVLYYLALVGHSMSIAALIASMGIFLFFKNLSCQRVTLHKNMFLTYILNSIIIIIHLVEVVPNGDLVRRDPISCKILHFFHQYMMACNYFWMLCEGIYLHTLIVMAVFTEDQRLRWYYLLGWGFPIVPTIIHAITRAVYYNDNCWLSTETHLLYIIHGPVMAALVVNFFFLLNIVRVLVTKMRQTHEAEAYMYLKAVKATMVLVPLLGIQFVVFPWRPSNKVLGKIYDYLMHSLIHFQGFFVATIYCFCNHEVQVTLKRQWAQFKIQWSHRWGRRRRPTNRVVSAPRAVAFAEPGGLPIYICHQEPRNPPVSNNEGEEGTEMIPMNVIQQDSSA
How it was run: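 cAMP accumulation in transiently transfected BHK tk'ts 13 cells, 100.000 cells/well, expressing rat calcitonin(a) receptor or its RAMP3 co-expression form (amylin 3(a)): 30 min stimulation with IBMX, 24 hours post-transfection. Readout by competition of cellular versus radiolabelled cAMP in FlashPlates, scintillation counted after 3 h.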

## CC[C@H](C)[C@H](NC(=O)[C@@H]1CCCN1C(=O)CNC(=O)[C@H](Cc1ccccc1)NC(=O)[C@H](CC(N)=O)NC(=O)[C@H](CC(N)=O)NC(=O)[C@H](CO)NC(=O)[C@H](CO)NC(=O)[C@H](Cc1c[nH]cn1)NC(=O)[C@H](Cc1c[nH]cn1)NC(=O)[C@H](CC(C)C)NC(=O)[C@H](Cc1ccccc1)NC(=O)[C@H](CCC(=O)O)NC(=O)[C@H](C)NC(=O)[C@H](CC(C)C)NC(=O)[C@H](CCCNC(=N)N)NC(=O)[C@H](CCC(N)=O)NC(=O)[C@@H](NC(=O)[C@H](C)NC(=O)[C@@H]1CSSC[C@H](NC(=O)[C@H](CCCCN)NC(=O)CC[C@H](NC(=O)CCCCCCCCCCCCCCCCCCC(=O)O)C(=O)O)C(=O)N[C@@H](CC(N)=O)C(=O)N[C@@H]([C@@H](C)O)C(=O)N[C@@H](C)C(=O)N[C@@H]([C@@H](C)O)C(=O)N1)[C@@H](C)O)C(=O)N[C@@H](CC(C)C)C(=O)N1CCC[C@H]1C(=O)N1CCC[C@H]1C(=O)N[C@H](C(=O)N[C@@H](CC(N)=O)C(=O)N[C@H](C(=O)NCC(=O)N[C@@H](CO)C(=O)N[C@@H](CC(N)=O)C(=O)N[C@H](C(=O)N[C@@H](Cc1ccc(O)cc1)C(N)=O)[C@@H](C)O)C(C)C)[C@@H](C)O [Example 27, N-alpha-[(S)-4-Carboxy-4-(19-carboxynonadecanoylamino)butyryl]-[Glu14,His17]-pramlintide] ({C20 diacid-γGlu}-KCNTATCATQRLAEFLHHSSNNFGPILPPTNVGSNTY-NH2; disulfide 2-7 (inferred))
[1]; ThT fibrillation assay
  ThT pH 4.0 lag time (h): 12.3 h
[2]
  EC50: 0.539 nM

## CC[C@H](C)[C@H](NC(=O)[C@H](CCCCNC(=O)COCCOCCNC(=O)COCCOCCNC(=O)CC[C@H](NC(=O)CCCCCCCCCCCCCCCCC(=O)O)C(=O)O)NC(=O)CNC(=O)[C@H](Cc1ccccc1)NC(=O)[C@H](CC(N)=O)NC(=O)[C@H](CC(N)=O)NC(=O)[C@H](CO)NC(=O)[C@H](CO)NC(=O)[C@H](Cc1c[nH]cn1)NC(=O)[C@H](Cc1c[nH]cn1)NC(=O)[C@H](CC(C)C)NC(=O)[C@H](Cc1ccccc1)NC(=O)[C@H](CCC(=O)O)NC(=O)[C@H](C)NC(=O)[C@H](CC(C)C)NC(=O)[C@H](CCCNC(=N)N)NC(=O)[C@H](CCC(N)=O)NC(=O)[C@@H](NC(=O)[C@H](C)NC(=O)[C@@H]1CSSC[C@H](NC(=O)[C@@H](N)CCCCN)C(=O)N[C@@H](CC(N)=O)C(=O)N[C@@H]([C@@H](C)O)C(=O)N[C@@H](C)C(=O)N[C@@H]([C@@H](C)O)C(=O)N1)[C@@H](C)O)C(=O)N[C@@H](CC(C)C)C(=O)N1CCC[C@H]1C(=O)N1CCC[C@H]1C(=O)N[C@H](C(=O)N[C@@H](CC(N)=O)C(=O)N[C@H](C(=O)NCC(=O)N[C@@H](CO)C(=O)N[C@@H](CC(N)=O)C(=O)N[C@H](C(=O)N[C@@H](Cc1ccc(O)cc1)C(N)=O)[C@@H](C)O)C(C)C)[C@@H](C)O [Example 73, N-epsilon25-[2-(2-{2-[2-(2-{2-[(S)-4-Carboxy-4-(17-carboxyheptadecanoylamino)butyrylamino]ethoxy}ethoxy)acetylamino]ethoxy}ethoxy)acetyl]-[Glu14,His17,Lys25]-pramlintide] (H-KCNTATCATQRLAEFLHHSSNNFGK([AEEA-AEEA-γGlu-C18 diacid])ILPPTNVGSNTY-NH2; disulfide 2-7 (inferred); N-terminus and C-terminus assumed)
[1]; Table 8
  ThT pH 4.0 lag time: >45 h
[1]; ThT fibrillation assay
  ThT pH 4.0 lag time: >45 h
  ThT pH 4.0 lag time (h): >45 h
[2]
  EC50: 0.167 nM

## CC[C@H](C)[C@H](NC(=O)[C@@H]1CCCN1C(=O)CNC(=O)[C@H](Cc1ccccc1)NC(=O)[C@H](CC(N)=O)NC(=O)[C@H](CC(N)=O)NC(=O)[C@H](CO)NC(=O)[C@H](CO)NC(=O)[C@H](Cc1c[nH]cn1)NC(=O)[C@H](CCCNC(=N)N)NC(=O)[C@H](CC(C)C)NC(=O)[C@H](Cc1ccccc1)NC(=O)[C@H](CCC(=O)O)NC(=O)[C@H](C)NC(=O)[C@H](CC(C)C)NC(=O)[C@H](CCCNC(=N)N)NC(=O)[C@H](CCC(N)=O)NC(=O)[C@@H](NC(=O)[C@H](C)NC(=O)[C@@H]1CSSC[C@H](NC(=O)[C@H](Cc2c[nH]cn2)NC(=O)CC[C@H](NC(=O)CCCCCCCCCCCCCCCCCCC(=O)O)C(=O)O)C(=O)N[C@@H](CC(N)=O)C(=O)N[C@@H]([C@@H](C)O)C(=O)N[C@@H](C)C(=O)N[C@@H]([C@@H](C)O)C(=O)N1)[C@@H](C)O)C(=O)N[C@@H](CC(C)C)C(=O)N1CCC[C@H]1C(=O)N1CCC[C@H]1C(=O)N[C@H](C(=O)N[C@@H](CC(N)=O)C(=O)N[C@H](C(=O)NCC(=O)N[C@@H](CO)C(=O)N[C@@H](CC(N)=O)C(=O)N[C@H](C(=O)N1CCC[C@H]1C(N)=O)[C@@H](C)O)C(C)C)[C@@H](C)O [Example 90, N-alpha-[(S)-4-Carboxy-4-(19-carboxynonadecanoylamino)butyryl]-[His1,Glu14,Arg17,Pro37]-pramlintide] ({C20 diacid-γGlu}-HCNTATCATQRLAEFLRHSSNNFGPILPPTNVGSNTP-NH2; disulfide 2-7 (inferred); C-terminus assumed)
[1]; Table 8
  ThT pH 4.0 lag time: >45 h
[1]; Table 9
  ThT pH 4.0 lag time: >45 h
[1]; ThT fibrillation assay
  ThT pH 4.0 lag time: >45 h
  ThT pH 4.0 lag time (h): >45 h
[2]
  EC50: 0.128 nM

## CC[C@H](C)[C@H](NC(=O)[C@@H]1CCCN1C(=O)CNC(=O)[C@H](Cc1ccccc1)NC(=O)[C@H](CC(N)=O)NC(=O)[C@H](CC(N)=O)NC(=O)[C@H](CO)NC(=O)[C@H](CO)NC(=O)[C@H](Cc1c[nH]cn1)NC(=O)[C@@H](NC(=O)[C@H](CC(C)C)NC(=O)[C@H](Cc1ccccc1)NC(=O)[C@H](CCC(=O)O)NC(=O)[C@H](C)NC(=O)[C@H](CC(C)C)NC(=O)[C@H](CCCNC(=N)N)NC(=O)[C@H](CCC(N)=O)NC(=O)[C@@H](NC(=O)[C@H](C)NC(=O)[C@@H]1CSSC[C@H](NC(=O)[C@H](CCCCN)NC(=O)CC[C@H](NC(=O)CCCCCCCCCCCCCCCCCCC(=O)O)C(=O)O)C(=O)N[C@@H](CC(N)=O)C(=O)N[C@@H]([C@@H](C)O)C(=O)N[C@@H](C)C(=O)N[C@@H]([C@@H](C)O)C(=O)N1)[C@@H](C)O)C(C)C)C(=O)N[C@@H](CC(C)C)C(=O)N1CCC[C@H]1C(=O)N1CCC[C@H]1C(=O)N[C@H](C(=O)N[C@@H](CC(N)=O)C(=O)N[C@H](C(=O)NCC(=O)N[C@@H](CO)C(=O)N[C@@H](Cc1c[nH]cn1)C(=O)N[C@H](C(=O)N[C@@H](Cc1ccc(O)cc1)C(N)=O)[C@@H](C)O)C(C)C)[C@@H](C)O [Example 93, N-alpha-[(S)-4-Carboxy-4-(19-carboxynonadecanoylamino)butyryl]-[Glu14,His35]-pramlintide] ({C20 diacid-γGlu}-KCNTATCATQRLAEFLVHSSNNFGPILPPTNVGSHTY-NH2; disulfide 2-7 (inferred); C-terminus assumed)
[1]; ThT fibrillation assay
  ThT pH 4.0 lag time (h): 19 h
[2]
  EC50: 0.215 nM

## CC[C@H](C)[C@H](NC(=O)[C@@H]1CCCN1C(=O)CNC(=O)[C@H](Cc1ccccc1)NC(=O)[C@H](CC(N)=O)NC(=O)[C@H](CC(N)=O)NC(=O)[C@H](CO)NC(=O)[C@H](CO)NC(=O)[C@H](Cc1c[nH]cn1)NC(=O)[C@H](CCCNC(=N)N)NC(=O)[C@H](CC(C)C)NC(=O)[C@H](Cc1ccccc1)NC(=O)[C@H](CCC(=O)O)NC(=O)[C@H](C)NC(=O)[C@H](CC(C)C)NC(=O)[C@H](CCCNC(=N)N)NC(=O)[C@H](CCC(N)=O)NC(=O)[C@@H](NC(=O)[C@H](C)NC(=O)[C@@H]1CSSC[C@H](NC(=O)[C@H](CCCCN)NC(=O)[C@H](CCC(=O)O)NC(=O)CC[C@H](NC(=O)CCCCCCCCCCCCCCCCCCC(=O)O)C(=O)O)C(=O)N[C@@H](CC(N)=O)C(=O)N[C@@H]([C@@H](C)O)C(=O)N[C@@H](C)C(=O)N[C@@H]([C@@H](C)O)C(=O)N1)[C@@H](C)O)C(=O)N[C@@H](CC(C)C)C(=O)N1CCC[C@H]1C(=O)N1CCC[C@H]1C(=O)N[C@H](C(=O)N[C@@H](CC(N)=O)C(=O)N[C@H](C(=O)NCC(=O)N[C@@H](CO)C(=O)N[C@@H](Cc1c[nH]cn1)C(=O)N[C@H](C(=O)N[C@@H](Cc1ccc(O)cc1)C(N)=O)[C@@H](C)O)C(C)C)[C@@H](C)O [Example 58, N-alpha-[(S)-4-Carboxy-4-(19-carboxynonadecanoylamino)butyryl]-Glu-[Glu14,Arg17,His35]-pramlintide] ({C20 diacid-γGlu}-EKCNTATCATQRLAEFLRHSSNNFGPILPPTNVGSHTY-NH2; disulfide 3-8 (inferred); C-terminus assumed)
[1]; Table 8
  ThT pH 4.0 lag time: >45 h
[1]; Table 9
  ThT pH 4.0 lag time: >45 h
[1]; ThT fibrillation assay
  ThT pH 4.0 lag time: >45 h
  ThT pH 4.0 lag time (h): >45 h
[2]
  EC50: 2.23 nM
